Active and inactive are the calls of the source. The rule behind the calls is not given here.
Key:
[1] = (§1) Cytotoxicity against human A375P cells assessed as cell viability after 24 hrs by MTT assay; assay type: functional
[2] = (§2) Cytotoxicity against human U937 cells assessed as cell viability after 24 hrs by MTT assay; assay type: functional; conditions: U-937, 24 h
[3] = test system: A375P; assay: as §1; assay type: functional
[4] = test system: U-937; assay: as §2; assay type: functional
[5] = target: Tyrosine-protein kinase SYK (Homo sapiens) (UniProt P43405); assay: Inhibition of SYK (unknown origin) at 10 uM
[6] = target: Proto-oncogene tyrosine-protein kinase ROS (Homo sapiens) (UniProt P08922); assay: Inhibition of ROS/ROS1 (unknown origin) at 10 uM
[7] = target: Macrophage-stimulating protein receptor (Homo sapiens) (UniProt Q04912); assay: Inhibition of RON/MST1R (unknown origin) at 10 uM
[8] = target: T1, RAF proto-oncogene serine/threonine-protein kinase (Homo sapiens, UniProt P04049); assay: Inhibition of RAF1 (unknown origin) at 10 uM
[9] = target: Serine/threonine-protein kinase PLK1 (Homo sapiens) (UniProt P53350); assay: Inhibition of PLK1 (unknown origin) at 10 uM
[10] = organism: Homo sapiens; assay: Inhibition of PKA (unknown origin) at 10 uM
[11] = target: T2, Mitogen-activated protein kinase 14 (Homo sapiens, UniProt Q16539); assay: Inhibition of P38a/MAPK14 (unknown origin) at 10 uM
[12] = target: Serine/threonine-protein kinase mTOR (Homo sapiens) (UniProt P42345); assay: Inhibition of mTOR/FRAP1 (unknown origin) at 10 uM
[13] = target: Dual specificity mitogen-activated protein kinase kinase 1 (Homo sapiens) (UniProt Q02750); assay: Inhibition of MEK1 (unknown origin) at 10 uM
[14] = target: Tyrosine-protein kinase Lyn (Homo sapiens) (UniProt P07948); assay: Inhibition of LYN (unknown origin) at 10 uM
[15] = target: Tyrosine-protein kinase Lck (Homo sapiens) (UniProt P06239); assay: Inhibition of LCK (unknown origin) at 10 uM
[16] = target: Mitogen-activated protein kinase 10 (Homo sapiens) (UniProt P53779); assay: Inhibition of JNK3 (unknown origin) at 10 uM
[17] = target: Tyrosine-protein kinase JAK3 (Homo sapiens) (UniProt P52333); assay: Inhibition of JAK3 (unknown origin) at 10 uM
[18] = target: Insulin-like growth factor 1 receptor (Homo sapiens) (UniProt P08069); assay: Inhibition of IGF1R (unknown origin) at 10 uM
[19] = target: Glycogen synthase kinase-3 beta (Homo sapiens) (UniProt P49841); assay: Inhibition of GSK3b (unknown origin) at 10 uM
[20] = target: Macrophage colony-stimulating factor 1 receptor (Homo sapiens) (UniProt P07333); assay: Inhibition of FMS (unknown origin) at 10 uM
[21] = target: Receptor-type tyrosine-protein kinase FLT3 (Homo sapiens) (UniProt P36888); assay: Inhibition of FLT3 (unknown origin) at 10 uM
[22] = target: Fibroblast growth factor receptor 3 (Homo sapiens) (UniProt P22607); assay: Inhibition of FGFR3 (unknown origin) at 10 uM
[23] = target: Mitogen-activated protein kinase 3 (Homo sapiens) (UniProt P27361); assay: Inhibition of ERK1 (unknown origin) at 10 uM
[24] = target: Epidermal growth factor receptor (Homo sapiens) (UniProt P00533); assay: Inhibition of EGFR (unknown origin) at 10 uM
[25] = target: Cyclin-dependent kinase 1/cyclin B1 (Homo sapiens) (UniProt P06493+P14635); assay: Inhibition of CDK1/cyclin B (unknown origin) at 10 uM; assay type: protein-complex assay
[26] = target: Proto-oncogene tyrosine-protein kinase Src (Homo sapiens) (UniProt P12931); assay: Inhibition of c-Src (unknown origin) at 10 uM
[27] = target: Hepatocyte growth factor receptor (Homo sapiens) (UniProt P08581); assay: Inhibition of c-MET (unknown origin) at 10 uM
[28] = target: Mast/stem cell growth factor receptor Kit (Homo sapiens) (UniProt P10721); assay: Inhibition of c-Kit (unknown origin) at 10 uM
[29] = target: Tyrosine-protein kinase BTK (Homo sapiens) (UniProt Q06187); assay: Inhibition of BTK (unknown origin) at 10 uM
[30] = target: Aurora kinase A (Homo sapiens) (UniProt O14965); assay: Inhibition of Aurora A (unknown origin) at 10 uM
[31] = target: ALK tyrosine kinase receptor (Homo sapiens) (UniProt Q9UM73); assay: Inhibition of ALK (unknown origin) at 10 uM
[32] = target: RAC-alpha serine/threonine-protein kinase (Homo sapiens) (UniProt P31749); assay: Inhibition of AKT1 (unknown origin) at 10 uM
[33] = target: Tyrosine-protein kinase ABL1 (Homo sapiens) (UniProt P00519); assay: Inhibition of ABL1 (unknown origin) at 10 uM
[34] = target: T3, Serine/threonine-protein kinase B-raf (Homo sapiens, UniProt P15056); assay: Inhibition of BRAF (unknown origin)
[35] = target: Serine/threonine-protein kinase B-raf (Homo sapiens, UniProt P15056, V600E); assay: Inhibition of BRAF V599E mutant (unknown origin)
[36] = target: T2, Mitogen-activated protein kinase 14; assay: Inhibition of P38a/MAPK14 (unknown origin)
[37] = target: T1, RAF proto-oncogene serine/threonine-protein kinase; assay: Inhibition of cRAF1 (unknown origin) at 10 uM
[38] = test system: Serine/threonine-protein kinase B-raf (Homo sapiens), P15056 [V600E]; conditions: 10 uM
Description: Inhibition of BRAF V599E mutant (unknown origin) at 10 uM

[39] = target: T3, Serine/threonine-protein kinase B-raf; conditions: 10 uM
Description: Inhibition of BRAF (unknown origin) at 10 uM

[40] = target: Focal adhesion kinase 1 (Homo sapiens) (UniProt Q05397); assay: Inhibition of FAK/PTK2 (unknown origin) at 10 uM

T1 sequence (P04049 whole entry): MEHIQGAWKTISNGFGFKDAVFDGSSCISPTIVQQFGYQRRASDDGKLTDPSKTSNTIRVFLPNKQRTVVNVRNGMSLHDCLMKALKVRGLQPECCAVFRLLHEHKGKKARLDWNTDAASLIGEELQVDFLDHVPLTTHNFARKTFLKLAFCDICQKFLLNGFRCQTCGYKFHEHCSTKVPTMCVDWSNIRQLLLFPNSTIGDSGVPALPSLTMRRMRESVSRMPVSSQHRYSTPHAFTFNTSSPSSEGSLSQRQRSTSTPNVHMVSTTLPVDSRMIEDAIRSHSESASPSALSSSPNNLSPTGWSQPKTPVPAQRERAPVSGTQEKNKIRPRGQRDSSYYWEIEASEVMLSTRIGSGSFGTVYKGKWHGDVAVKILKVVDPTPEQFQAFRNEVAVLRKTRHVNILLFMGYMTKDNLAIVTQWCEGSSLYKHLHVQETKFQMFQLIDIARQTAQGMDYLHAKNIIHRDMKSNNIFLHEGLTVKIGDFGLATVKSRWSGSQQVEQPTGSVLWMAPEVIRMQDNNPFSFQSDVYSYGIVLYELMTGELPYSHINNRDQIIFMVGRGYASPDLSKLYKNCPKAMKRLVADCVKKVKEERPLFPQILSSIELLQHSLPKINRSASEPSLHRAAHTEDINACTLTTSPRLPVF
T3 sequence (P15056 whole entry): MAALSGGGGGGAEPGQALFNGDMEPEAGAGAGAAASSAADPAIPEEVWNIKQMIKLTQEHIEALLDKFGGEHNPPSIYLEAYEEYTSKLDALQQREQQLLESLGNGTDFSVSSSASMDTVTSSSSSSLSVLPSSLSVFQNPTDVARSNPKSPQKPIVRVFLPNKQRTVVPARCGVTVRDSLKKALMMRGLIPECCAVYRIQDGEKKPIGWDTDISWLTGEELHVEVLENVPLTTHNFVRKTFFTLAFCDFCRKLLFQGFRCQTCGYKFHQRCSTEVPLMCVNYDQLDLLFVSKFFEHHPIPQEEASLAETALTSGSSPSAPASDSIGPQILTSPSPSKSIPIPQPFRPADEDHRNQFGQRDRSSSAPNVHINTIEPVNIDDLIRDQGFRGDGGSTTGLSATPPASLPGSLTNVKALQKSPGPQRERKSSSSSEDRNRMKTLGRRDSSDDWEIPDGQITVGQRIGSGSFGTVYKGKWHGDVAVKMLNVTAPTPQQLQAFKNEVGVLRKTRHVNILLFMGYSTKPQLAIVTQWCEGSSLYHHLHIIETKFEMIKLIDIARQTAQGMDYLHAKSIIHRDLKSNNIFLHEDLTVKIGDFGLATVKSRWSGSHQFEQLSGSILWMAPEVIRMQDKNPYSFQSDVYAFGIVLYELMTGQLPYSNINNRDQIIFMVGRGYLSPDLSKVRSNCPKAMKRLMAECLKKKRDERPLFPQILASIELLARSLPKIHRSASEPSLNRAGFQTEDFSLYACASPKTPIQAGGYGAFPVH
T2 sequence (Q16539 whole entry): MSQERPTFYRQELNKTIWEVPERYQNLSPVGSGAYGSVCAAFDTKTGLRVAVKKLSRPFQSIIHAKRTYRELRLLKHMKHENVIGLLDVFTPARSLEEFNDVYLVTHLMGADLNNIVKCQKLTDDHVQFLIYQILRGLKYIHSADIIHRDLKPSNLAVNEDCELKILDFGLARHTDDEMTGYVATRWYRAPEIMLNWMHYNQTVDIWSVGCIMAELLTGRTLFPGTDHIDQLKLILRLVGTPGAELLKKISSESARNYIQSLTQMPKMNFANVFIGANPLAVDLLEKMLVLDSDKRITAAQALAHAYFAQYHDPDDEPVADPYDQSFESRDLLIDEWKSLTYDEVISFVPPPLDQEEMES
Sequence of Tyrosine-protein kinase Lck (Homo sapiens) (P06239 2-509 limits assumed): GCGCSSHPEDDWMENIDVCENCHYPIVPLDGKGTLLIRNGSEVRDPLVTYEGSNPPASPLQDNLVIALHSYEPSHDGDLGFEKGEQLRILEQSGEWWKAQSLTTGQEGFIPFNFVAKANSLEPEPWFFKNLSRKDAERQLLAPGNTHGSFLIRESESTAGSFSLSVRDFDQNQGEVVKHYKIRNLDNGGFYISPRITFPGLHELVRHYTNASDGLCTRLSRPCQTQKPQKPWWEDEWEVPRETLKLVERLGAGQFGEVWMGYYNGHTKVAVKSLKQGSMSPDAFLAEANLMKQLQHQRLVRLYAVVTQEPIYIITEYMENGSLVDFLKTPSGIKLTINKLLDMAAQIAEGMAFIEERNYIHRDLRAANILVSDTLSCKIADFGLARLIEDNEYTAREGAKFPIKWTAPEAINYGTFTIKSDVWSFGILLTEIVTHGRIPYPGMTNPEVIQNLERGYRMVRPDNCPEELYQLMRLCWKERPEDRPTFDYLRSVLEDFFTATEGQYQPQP
Sequence of Serine/threonine-protein kinase PLK1 (Homo sapiens) (P53350 whole entry): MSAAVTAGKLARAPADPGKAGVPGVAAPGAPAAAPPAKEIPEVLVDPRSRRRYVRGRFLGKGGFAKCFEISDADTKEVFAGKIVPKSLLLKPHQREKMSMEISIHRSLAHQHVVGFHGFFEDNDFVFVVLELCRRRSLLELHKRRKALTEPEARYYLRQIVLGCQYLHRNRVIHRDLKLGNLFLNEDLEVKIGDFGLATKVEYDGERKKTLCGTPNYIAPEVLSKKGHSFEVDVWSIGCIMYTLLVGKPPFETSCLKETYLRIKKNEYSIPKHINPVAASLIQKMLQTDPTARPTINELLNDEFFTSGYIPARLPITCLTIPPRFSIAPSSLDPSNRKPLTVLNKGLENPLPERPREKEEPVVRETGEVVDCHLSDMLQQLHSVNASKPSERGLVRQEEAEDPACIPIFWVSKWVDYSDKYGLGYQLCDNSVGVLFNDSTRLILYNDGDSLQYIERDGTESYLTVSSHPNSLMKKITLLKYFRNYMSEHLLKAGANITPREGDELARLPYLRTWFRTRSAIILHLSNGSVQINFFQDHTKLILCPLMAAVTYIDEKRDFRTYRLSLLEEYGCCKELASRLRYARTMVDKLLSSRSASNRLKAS
Sequence of Tyrosine-protein kinase ABL1 (Homo sapiens) (P00519 whole entry): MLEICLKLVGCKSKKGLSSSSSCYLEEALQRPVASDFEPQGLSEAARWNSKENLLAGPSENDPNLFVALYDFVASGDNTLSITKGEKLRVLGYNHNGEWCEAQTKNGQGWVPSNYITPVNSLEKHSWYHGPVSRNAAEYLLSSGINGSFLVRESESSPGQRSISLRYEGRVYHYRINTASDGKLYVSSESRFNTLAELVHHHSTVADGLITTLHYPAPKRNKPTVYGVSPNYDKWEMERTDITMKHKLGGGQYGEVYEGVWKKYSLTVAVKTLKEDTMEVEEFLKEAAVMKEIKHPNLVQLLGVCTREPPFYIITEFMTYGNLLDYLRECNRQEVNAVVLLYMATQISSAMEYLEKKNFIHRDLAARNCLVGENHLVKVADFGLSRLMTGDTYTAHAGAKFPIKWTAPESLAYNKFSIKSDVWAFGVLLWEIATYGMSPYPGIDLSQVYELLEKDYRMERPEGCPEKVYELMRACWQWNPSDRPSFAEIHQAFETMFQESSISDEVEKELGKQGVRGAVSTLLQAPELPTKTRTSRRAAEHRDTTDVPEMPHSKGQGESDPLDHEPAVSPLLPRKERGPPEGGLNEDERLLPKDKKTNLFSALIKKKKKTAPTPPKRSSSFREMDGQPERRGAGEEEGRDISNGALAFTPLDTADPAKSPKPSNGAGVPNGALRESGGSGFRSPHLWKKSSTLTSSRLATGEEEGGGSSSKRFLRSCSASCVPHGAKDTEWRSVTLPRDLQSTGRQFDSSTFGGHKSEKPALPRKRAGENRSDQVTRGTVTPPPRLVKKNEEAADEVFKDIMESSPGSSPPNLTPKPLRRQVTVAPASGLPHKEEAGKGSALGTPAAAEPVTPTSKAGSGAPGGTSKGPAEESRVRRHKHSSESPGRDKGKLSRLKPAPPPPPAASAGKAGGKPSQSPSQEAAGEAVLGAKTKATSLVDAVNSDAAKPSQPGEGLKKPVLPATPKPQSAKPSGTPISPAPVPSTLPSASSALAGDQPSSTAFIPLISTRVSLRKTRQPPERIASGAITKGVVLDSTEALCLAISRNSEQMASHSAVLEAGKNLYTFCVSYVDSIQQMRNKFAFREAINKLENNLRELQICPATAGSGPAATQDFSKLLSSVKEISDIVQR
Sequence of Tyrosine-protein kinase Lyn (Homo sapiens) (P07948 2-512 limits assumed): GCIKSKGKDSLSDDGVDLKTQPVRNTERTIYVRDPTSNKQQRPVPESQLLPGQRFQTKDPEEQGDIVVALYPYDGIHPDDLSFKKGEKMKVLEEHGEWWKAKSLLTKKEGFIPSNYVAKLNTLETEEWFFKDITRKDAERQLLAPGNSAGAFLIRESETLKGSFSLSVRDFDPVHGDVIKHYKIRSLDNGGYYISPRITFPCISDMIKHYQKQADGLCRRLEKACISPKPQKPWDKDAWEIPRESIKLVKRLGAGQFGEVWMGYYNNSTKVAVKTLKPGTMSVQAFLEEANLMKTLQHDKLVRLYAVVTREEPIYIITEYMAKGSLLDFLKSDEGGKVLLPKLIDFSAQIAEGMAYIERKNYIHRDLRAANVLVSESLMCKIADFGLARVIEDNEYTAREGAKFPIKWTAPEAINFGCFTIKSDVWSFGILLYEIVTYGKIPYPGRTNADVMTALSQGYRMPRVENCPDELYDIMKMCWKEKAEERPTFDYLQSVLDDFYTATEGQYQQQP
Sequence of Serine/threonine-protein kinase B-raf (Homo sapiens), P15056 [V600E] (P15056 whole entry V600E): as the sequence (P15056 whole entry) above, with V600E counted along it
Sequence of Mitogen-activated protein kinase 10 (Homo sapiens) (P53779 whole entry): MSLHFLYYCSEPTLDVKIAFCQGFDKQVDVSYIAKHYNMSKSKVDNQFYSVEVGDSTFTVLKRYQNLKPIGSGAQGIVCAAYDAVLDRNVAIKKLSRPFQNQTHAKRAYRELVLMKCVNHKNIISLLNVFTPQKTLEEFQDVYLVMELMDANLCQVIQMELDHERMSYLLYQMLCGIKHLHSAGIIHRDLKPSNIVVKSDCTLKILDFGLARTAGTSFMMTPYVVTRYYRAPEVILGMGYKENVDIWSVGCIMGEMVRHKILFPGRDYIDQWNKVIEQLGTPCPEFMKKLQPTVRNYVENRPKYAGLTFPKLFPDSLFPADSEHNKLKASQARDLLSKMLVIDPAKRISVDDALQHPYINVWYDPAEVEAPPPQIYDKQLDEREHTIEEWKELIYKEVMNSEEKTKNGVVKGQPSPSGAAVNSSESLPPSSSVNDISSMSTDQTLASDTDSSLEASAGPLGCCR

With `C[C@H](O)CNc1nccc(-n2ccnc2Cc2cccc(NC(=O)c3ccc(-c4ccccc4)cc3)c2)n1` as the compound, how does the GI50 [1] read?
Its GI50 is 0.6 µM.

And the GI50 [2]?
Its GI50 is 1.68 µM.

Which results are given for `C[C@H](O)CNc1nccc(-n2ccnc2Cc2cccc(NC(=O)Nc3cccc(Cl)c3)c2)n1`?
GI50 [1]: 26.2 µM; GI50 [2]: 15.3 µM

Which GI50 [3] does the source give for `C[C@H](O)CNc1nccc(-n2ccnc2Cc2cccc(NC(=O)c3cnccn3)c2)n1` here?
Its GI50 is “inactive”.

What about the GI50 [2] of the same compound?
The GI50 was > 30 µM.

With `C[C@H](O)CNc1nccc(-n2ccnc2C(=O)c2cccc(NC(=O)c3cc(N4CCN(C)CC4)cc(C(F)(F)F)c3)c2)n1` as the compound, how does the GI50 [1] read?
The GI50 was 27.8 µM.

And the GI50 [4]?
The GI50 was “inactive”.

For `C[C@H](O)CNc1nccc(-n2ccnc2Cc2cccc(NC(=O)c3cc(N4CCN(C)CC4)cc(C(F)(F)F)c3)c2)n1`, which GI50 [1] is on record?
Its GI50 is 12.3 µM.

And the GI50 [2]?
The GI50 was > 30 µM.

For `C[C@H](O)CNc1nccc(-n2ccnc2C(=O)c2cccc(NC(=O)c3ccc(Cl)cc3)c2)n1`, which GI50 [1] is on record?
The GI50 was > 30 µM.

And the GI50 [2]?
The GI50 was > 30 µM.

What does the source list for `C[C@H](O)CNc1nccc(-n2ccnc2C(=O)c2cccc(NC(=O)Nc3ccc(Cl)cc3)c2)n1`?
GI50 [1]: > 30 µM; GI50 [2]: > 30 µM

With `C[C@H](O)CNc1nccc(-n2ccnc2Cc2cccc(NC(=O)c3cc(N4CCOCC4)cc(C(F)(F)F)c3)c2)n1` as the compound, how does the GI50 [1] read?
Its GI50 is 6.6 µM.

And the GI50 [2]?
Its GI50 is 9.7 µM.

With `Cc1c(C)c2c(c(C)c1O)CC[C@](C)(C(=O)Nc1cccc(Cc3nccn3-c3ccnc(NC[C@H](C)O)n3)c1)O2` as the compound, how does the GI50 [3] read?
The GI50 was “inactive”.

What about the GI50 [2] of the same compound?
Its GI50 is 23.6 µM.

Which results are given for `C[C@H](O)CNc1nccc(-n2ccnc2Cc2cccc(NC(=O)Nc3ccc(Cl)c(C(F)(F)F)c3)c2)n1`?
GI50 [1]: 1.82 µM; GI50 [2]: 2.73 µM; inhibition [5]: 0%; inhibition [6]: 0.73%; inhibition [7]: 0.42%; inhibition [8]: 98.7%; inhibition [9]: 9.9%; inhibition [10]: 0%; inhibition [11]: 94.3%; inhibition [12]: 0%; inhibition [13]: 0%; inhibition [14]: 8.1%; inhibition [15]: 5.8%; inhibition [16]: 0%; inhibition [17]: 0%; inhibition [18]: 0%; inhibition [19]: 34.5%; inhibition [20]: 33.6%; inhibition [21]: 68.4%; inhibition [22]: 3.5%; inhibition [23]: 0%; inhibition [24]: 0%; inhibition [25]: 34.8%; inhibition [26]: 2.1%; inhibition [27]: 17.6%; inhibition [28]: 63.8%; inhibition [29]: 0%; inhibition [30]: 17.6%; inhibition [31]: 4.9%; inhibition [32]: 12.9%; inhibition [33]: 6.9%; IC50 [34]: 0.186 µM; IC50 [35]: 0.0383 µM; IC50 [36]: 0.571 µM; IC50 [37]: 0.00879 µM; inhibition [38]: 96.1%; inhibition [39]: 99.9%; inhibition [40]: 1.2%

What does the source list for `C[C@H](O)CNc1nccc(-n2ccnc2Cc2cccc(NC(=O)c3ccccc3-c3ccccc3)c2)n1`?
GI50 [3]: inactive; GI50 [4]: inactive

Which results are given for `C[C@H](O)CNc1nccc(-n2ccnc2Cc2cccc(NC(=O)c3ccc(Cl)c(C(F)(F)F)c3)c2)n1`?
GI50 [1]: 3.3 µM; GI50 [2]: 6.83 µM

With `C[C@H](O)CNc1nccc(-n2ccnc2Cc2cccc(NC(=O)C3Cc4ccccc4N3)c2)n1` (stereo partly specified) as the compound, how does the GI50 [1] read?
Its GI50 is > 30 µM.

And the GI50 [2]?
Its GI50 is 18.5 µM.

Which GI50 [1] does the source give for `C[C@H](O)CNc1nccc(-n2ccnc2C(=O)c2ccc(NC(=O)c3ccc(Cl)cc3)cc2)n1` here?
The GI50 was > 30 µM.

What about the GI50 [2] of the same compound?
Its GI50 is > 30 µM.

Which GI50 [1] does the source give for `C[C@H](O)CNc1nccc(-n2ccnc2C(=O)c2ccc(NC(=O)Nc3ccc(Cl)c(Cl)c3)cc2)n1` here?
The GI50 was > 30 µM.

And the GI50 [2]?
Its GI50 is 11.6 µM.

For `C[C@H](O)CNc1nccc(-n2ccnc2C(=O)c2cccc(NC(=O)c3cc(N4CCOCC4)cc(C(F)(F)F)c3)c2)n1`, which GI50 [3] is on record?
The GI50 was “inactive”.

What about the GI50 [2] of the same compound?
Its GI50 is 4.9 µM.

For `C[C@H](O)CNc1nccc(-n2ccnc2Cc2cccc(NC(=O)Cc3ccc(-c4ccccc4)cc3)c2)n1`, which GI50 [1] is on record?
The GI50 was 11.2 µM.

And the GI50 [2]?
Its GI50 is 10 µM.

With `C[C@H](O)CNc1nccc(-n2ccnc2Cc2cccc(NC(=O)c3ccc(Cl)cc3)c2)n1` as the compound, how does the GI50 [1] read?
Its GI50 is 10.2 µM.

What about the GI50 [2] of the same compound?
The GI50 was > 30 µM.

What does the source list for `CC(=O)N1CCC(C(=O)Nc2cccc(Cc3nccn3-c3ccnc(NC[C@H](C)O)n3)c2)CC1`?
GI50 [3]: inactive; GI50 [4]: inactive

Which GI50 [1] does the source give for `C[C@H](O)CNc1nccc(-n2ccnc2Cc2cccc(NC(=O)c3ccncc3)c2)n1` here?
Its GI50 is 8.92 µM.

And the GI50 [4]?
The GI50 was “inactive”.

Reference: ChEMBL document CHEMBL3351907, “Design, synthesis and biological evaluation of benzyl 2-(1H-imidazole-1-yl) pyrimidine analogues as selective and potent Raf inhibitors” (Bioorg Med Chem Lett, 2014)
